Values of other authors, collected in patent publication US9540691B2, “Assays and methods for selecting a treatment regimen for a subject with depression” (THE GENERAL HOSPITAL CORPORATION, priority 2011, dated 2017).
Where two headings read alike, the source gives them in different places.

Test system: adults with DSM-IV MDD, partial or nonresponse to an SSRI
Details: cited from earlier work

Nc1nc(=O)c2c([nH]1)NCC(CNc1ccc(C(=O)N[C@@H](CCC(=O)O)C(=O)O)cc1)N2C=O (mixture of isomers) [Folinic acid]
HAM-D-17 score after treatment (16 completers, decreased from 19.1+/−3.9, p<0.01): 12.8+/−7.0 | remission (HAM-D-17 no greater than 7) (ITT sample): 18% | remission (HAM-D-17 no greater than 7) (completers): 19% | response (at least 50% reduction in HAM-D-17) (completers): 31% | Folate levels after treatment (folinic acid 15-30 mg/day added to SSRIs, 8 weeks, rose from 28+/−19, p<0.001): 301 ± 203 ng/mL | response (at least 50% reduction in HAM-D-17) (intent-to-treat (ITT) sample): 27%
